Experimental data: the NIST ThermoML archive (doi:10.1021/je300086w)
± gives the expanded uncertainty stated by the source. One block for each molecule: values may come before it.

Legend:
[1] = refractive index (Na D-line) (dimensionless); conditions: 101.33 kPa, Liquid, Standard Abbe refractometry
[2] = for viscosity / mass density: 101.33 kPa, Liquid; for mass density: Vibrating tube method; for Normal melting temperature: Crystal, AC calorimetry

Structure (SMILES): CCCC(=O)[O-].C[N+](C)(C)CCO [choline butanoate]
- refractive index ([1]; 293.15 K): 1.4716 ± 0.0004
- refractive index ([1]; 298.15 K): 1.47 ± 0.0004
- refractive index ([1]; 303.15 K): 1.4683 ± 0.0004
- refractive index ([1]; 308.15 K): 1.4667 ± 0.0004
- refractive index ([1]; 313.15 K): 1.465 ± 0.0004
- refractive index ([1]; 318.15 K): 1.4633 ± 0.0004
- refractive index ([1]; 323.15 K): 1.4617 ± 0.0004
- refractive index ([1]; 328.15 K): 1.46 ± 0.0004
- refractive index ([1]; 333.15 K): 1.4585 ± 0.0004
- viscosity ([2]; 293.15 K): 833.1 ± 63 mPa·s
- mass density ([2]; 293.15 K): 1049.5 ± 1 kg/m3
- viscosity ([2]; 298.15 K): 630.6 ± 43 mPa·s
- mass density ([2]; 298.15 K): 1046.5 ± 1 kg/m3
- viscosity ([2]; 303.15 K): 459.3 ± 28 mPa·s
- mass density ([2]; 303.15 K): 1043.4 ± 1 kg/m3
- viscosity ([2]; 308.15 K): 344.2 ± 18 mPa·s
- mass density ([2]; 308.15 K): 1040.5 ± 1 kg/m3
- viscosity ([2]; 313.15 K): 254 ± 11 mPa·s
- mass density ([2]; 313.15 K): 1037.6 ± 1 kg/m3
- viscosity ([2]; 318.15 K): 193.8 ± 7.2 mPa·s
- mass density ([2]; 318.15 K): 1034.6 ± 1 kg/m3
- viscosity ([2]; 323.15 K): 150.2 ± 4.5 mPa·s
- mass density ([2]; 323.15 K): 1031.9 ± 1 kg/m3
- viscosity ([2]; 328.15 K): 118.2 ± 2.8 mPa·s
- mass density ([2]; 328.15 K): 1029 ± 1 kg/m3
- viscosity ([2]; 333.15 K): 94.3 ± 1.7 mPa·s
- mass density ([2]; 333.15 K): 1026.2 ± 1 kg/m3
- viscosity ([2]; 338.15 K): 76.1 ± 1 mPa·s
- mass density ([2]; 338.15 K): 1023.4 ± 1 kg/m3
- viscosity ([2]; 343.15 K): 62.2 ± 0.6 mPa·s
- mass density ([2]; 343.15 K): 1020.5 ± 1 kg/m3
- viscosity ([2]; 348.15 K): 51.4 ± 0.4 mPa·s
- mass density ([2]; 348.15 K): 1017.2 ± 1 kg/m3
- viscosity ([2]; 353.15 K): 42.9 ± 0.4 mPa·s
- mass density ([2]; 353.15 K): 1014.5 ± 1 kg/m3

Structure (SMILES): CCCCCC(=O)[O-].C[N+](C)(C)CCO [2-hydroxy-N,N,N-trimethylethanaminium hexanoate]
- refractive index ([1]; 293.15 K): 1.4726 ± 0.0004
- refractive index ([1]; 298.15 K): 1.4709 ± 0.0004
- refractive index ([1]; 303.15 K): 1.4692 ± 0.0004
- refractive index ([1]; 308.15 K): 1.4675 ± 0.0004
- refractive index ([1]; 313.15 K): 1.4658 ± 0.0004
- refractive index ([1]; 318.15 K): 1.464 ± 0.0004
- refractive index ([1]; 323.15 K): 1.4624 ± 0.0004
- refractive index ([1]; 328.15 K): 1.4607 ± 0.0004
- refractive index ([1]; 333.15 K): 1.459 ± 0.0004
- viscosity ([2]; 293.15 K): 929.2 ± 73 mPa·s
- mass density ([2]; 293.15 K): 1018.8 ± 1 kg/m3
- viscosity ([2]; 298.15 K): 710.7 ± 51 mPa·s
- mass density ([2]; 298.15 K): 1015.7 ± 1 kg/m3
- viscosity ([2]; 303.15 K): 530.4 ± 34 mPa·s
- mass density ([2]; 303.15 K): 1012.5 ± 1 kg/m3
- viscosity ([2]; 308.15 K): 400.3 ± 23 mPa·s
- mass density ([2]; 308.15 K): 1009.8 ± 1 kg/m3
- viscosity ([2]; 313.15 K): 298 ± 14 mPa·s
- mass density ([2]; 313.15 K): 1006.8 ± 1 kg/m3
- viscosity ([2]; 318.15 K): 225.9 ± 9.3 mPa·s
- mass density ([2]; 318.15 K): 1003.9 ± 1 kg/m3
- viscosity ([2]; 323.15 K): 175.3 ± 6 mPa·s
- mass density ([2]; 323.15 K): 1001.3 ± 1 kg/m3
- viscosity ([2]; 328.15 K): 140.3 ± 4 mPa·s
- mass density ([2]; 328.15 K): 998.4 ± 1 kg/m3
- viscosity ([2]; 333.15 K): 110.9 ± 2.5 mPa·s
- mass density ([2]; 333.15 K): 995.5 ± 1 kg/m3
- viscosity ([2]; 338.15 K): 89.7 ± 1.5 mPa·s
- mass density ([2]; 338.15 K): 992.6 ± 1 kg/m3
- viscosity ([2]; 343.15 K): 73.7 ± 0.9 mPa·s
- mass density ([2]; 343.15 K): 989.7 ± 1 kg/m3
- viscosity ([2]; 348.15 K): 60.9 ± 0.6 mPa·s
- mass density ([2]; 348.15 K): 986.8 ± 1 kg/m3
- viscosity ([2]; 353.15 K): 51 ± 0.4 mPa·s
- mass density ([2]; 353.15 K): 984 ± 1 kg/m3

Structure (SMILES): CC(=O)OCC[N+](C)(C)C [2-acetoxy-N,N,N-trimethylethanaminium]
- Normal melting temperature [2]: 72.0 ± 1 °C

Results, then the molecule that gave them:

- refractive index ([1]; 293.15 K): 1.4705 ± 0.0004
- refractive index ([1]; 298.15 K): 1.4686 ± 0.0004
- refractive index ([1]; 303.15 K): 1.4668 ± 0.0004
- refractive index ([1]; 308.15 K): 1.465 ± 0.0004
- refractive index ([1]; 313.15 K): 1.4631 ± 0.0004
- refractive index ([1]; 318.15 K): 1.4611 ± 0.0004
- refractive index ([1]; 323.15 K): 1.4592 ± 0.0004
- refractive index ([1]; 328.15 K): 1.4573 ± 0.0004
- refractive index ([1]; 333.15 K): 1.4555 ± 0.0004
- viscosity ([2]; 293.15 K): 395.8 ± 22 mPa·s
- mass density ([2]; 293.15 K): 1074.6 ± 1 kg/m3
- viscosity ([2]; 298.15 K): 290.2 ± 14 mPa·s
- mass density ([2]; 298.15 K): 1071.5 ± 1 kg/m3
- viscosity ([2]; 303.15 K): 215.6 ± 8.6 mPa·s
- mass density ([2]; 303.15 K): 1068.6 ± 1 kg/m3
- viscosity ([2]; 308.15 K): 163.2 ± 5.3 mPa·s
- mass density ([2]; 308.15 K): 1065.7 ± 1 kg/m3
- viscosity ([2]; 313.15 K): 125.8 ± 3.2 mPa·s
- mass density ([2]; 313.15 K): 1062.8 ± 1 kg/m3
- viscosity ([2]; 318.15 K): 98.5 ± 1.9 mPa·s
- mass density ([2]; 318.15 K): 1060 ± 1 kg/m3
- viscosity ([2]; 323.15 K): 78.3 ± 1.1 mPa·s
- mass density ([2]; 323.15 K): 1057.2 ± 1 kg/m3
- viscosity ([2]; 328.15 K): 63 ± 0.6 mPa·s
- mass density ([2]; 328.15 K): 1054.3 ± 1 kg/m3
- viscosity ([2]; 333.15 K): 51.4 ± 0.4 mPa·s
- mass density ([2]; 333.15 K): 1051.4 ± 1 kg/m3
- viscosity ([2]; 338.15 K): 42.4 ± 0.4 mPa·s
- mass density ([2]; 338.15 K): 1048.6 ± 1 kg/m3
- viscosity ([2]; 343.15 K): 35.4 ± 0.4 mPa·s
- mass density ([2]; 343.15 K): 1045.8 ± 1 kg/m3
- viscosity ([2]; 348.15 K): 29.8 ± 0.3 mPa·s
- mass density ([2]; 348.15 K): 1042.9 ± 1 kg/m3
- viscosity ([2]; 353.15 K): 25.4 ± 0.3 mPa·s
- mass density ([2]; 353.15 K): 1040.1 ± 1 kg/m3
Structure (SMILES): CCC(=O)[O-].C[N+](C)(C)CCO [cholinium propanoate]

- Normal melting temperature [2]: 96.0 ± 1 °C
Structure (SMILES): CC(C)(C)C(=O)[O-].C[N+](C)(C)CCO [choline pivalate]
